From patent publication US12156873B2, “Composition for treating ocular hyperemia and a method for treating ocular hyperemia with the same” (ADS Therapeutics LLC, priority 2018, dated 2024)

Legend:
Format in all cases: in vivo
[1] = test system: Ocular hyperemia patients; test: Ocular hyperemia patients treated topically with emulsion formulations BID for 2 weeks, hyperemia graded from eye pictures
Procedure: Ocular hyperemia patients with hyperemia grade >2 (0-4, five-point scale; 0 being clear of hyperemia and 4 being of severe hyperemia) are selected for treatment with 4 emulsion formulations. Each group has about 20 patients. The patients are assigned to the groups in a way to make sure the base line average grade is similar among the groups. The formulations are dosed twice a day (BID) for 2 weeks and the patients are further followed up for 4 weeks. The formulations are administered topically by a physician on the day of visits or by the patient between visits. Patients are evaluated on day 1, week 1, and 2, before and after dosing. After the stop of dosing, patients are further followed up at 4 and 6 weeks.
The effect on ocular hyperemia is evaluated by taking pictures of the eye. […] The tolerability of the formulations is also evaluated with standard eye examinations commonly used for such assessment. The efficacy and tolerability data are analyzed by independent statisticians.

pterygium patients [2] = test: Phase 2a clinical trial stage 1: single dose escalating safety, tolerability and pharmacokinetics study; conditions: single dose 0.02%, 0.05%, 0.2% eye drop
Procedure: (§1) Nintedanib was formulated into an eye drop and tested in pterygium patients in a Phase 2a clinical trial to evaluate the safety and efficacy of nintedanib. The key efficacy endpoint is effects on pterygium vascularity.
The clinic trial was conducted in two stages. In stage 1, the safety, tolerability and pharmacokinetics were evaluated in a single dose escalating study. Three dose cohorts with 8 patients in each were evaluated. Cohort 1 began at the lowest concentration of 0.02% nintedanib (weight percent based on the total weight of the eye drop), followed by an increasing dose to 0.05% for Cohort 2 and then to 0.2% for Cohort 3.

pterygium patients [3] = test: Phase 2a clinical trial stage 2: 0.2% nintedanib eye drop vs vehicle, 28 days TID, pterygium vascularity graded from photographs
Procedure: as §1
In stage 2, the safety, tolerability and efficacy of the 0.2% formulation were evaluated in a randomized, double-masked, vehicle-controlled, parallel study with 28 days TID repeat ocular dosing of vehicle and 0.2% nintedanib. The patients were further followed up by 20 weeks of post-dosing observation. Ophthalmic and physical examinations were performed at screening, Day 1 and Week 2, 4, 8, 16, and 24. External photograph of the pterygium eye was taken using a digital camera and the pterygium vascularity was graded from these images at an independent image reading center. The primary objective is to evaluate ocular and systemic safety of nintedanib in pterygium patients that have moderate to severe pterygium vascularity. The secondary objective is to assess whether the formulation is efficacious in reducing pterygium vascularity.
A total of 50 patients were enrolled and randomized in a 1:1 treatment allocation to receive either nintedanib or vehicle. The final analysis was performed after study completion. The O'Brien-Fleming group-sequential method was used for a multiple-comparison adjustment of p-values for efficacy. For the final analysis, a 2-sided test with p-value ≤0.048 is considered statistically significant for all between and within treatment comparisons.

[4] = Day 1 before dosing (baseline), 0-4 five-point scale, BID topical
[5] = Wee 4 (follow-up, 2 weeks after stop of dosing), 0-4 scale
[6] = Week 6 (follow-up, 4 weeks after stop of dosing), 0-4 scale

**Q.** What does the source list for `Brc1c(NC2=NCCN2)ccc2nccnc12` [Brimonidine, (5-Bromoquinoxalin-6-yl)-(4,5-dihydro-1H-imidazol-2-yl)-amine]?
**A.** Average Hyperemia Grade ([1]; Day 1 2 h post, 0-4 scale): 2; Average Hyperemia Grade ([1]; Day 1 6 h post, 0-4 scale): 3; Average Hyperemia Grade [1, 4]: 3; Average Hyperemia Grade [1, 5]: 3; Average Hyperemia Grade ([1]; Week 1 2 h post, 0-4 scale): 2; Average Hyperemia Grade ([1]; Week 1 before, 0-4 scale): 3; Average Hyperemia Grade ([1]; Week 2 2 h post, 0-4 scale): 2; Average Hyperemia Grade ([1]; Week 2 before, 0-4 scale): 3; Average Hyperemia Grade [1, 6]: 3; duration of effect on hyperemia grade at each of the visits ([1]; after dosing): 2 to 4 h; hyperemia grade after dosing ([1]; day 1, week 1 and 2): reduced immediately after dosing; hyperemia grade after stop of treatments ([1]; week 4 and 6): the same as the baseline

**Q.** Which safety (pterygium patients [2]) does the source give for `COC(=O)c1ccc2c(c1)NC(=O)/C2=C(\Nc1ccc(N(C)C(=O)CN2CCN(C)CC2)cc1)c1ccccc1` [Nintedanib, (Z)-3-(1-(4-(N-((4-methyl-piperazin-1-yl)-methylcarbonyl)-N-methyl-amino)-phenylamino)-1-phenyl-methylene]-6-methoxycarbonyl-2-indolinone] here?
**A.** No safety issues were found at all doses

**Q.** And the “Average Hyperemia Grade” value ([1]; Day 1 2 h post, 0-4 scale)?
**A.** 3

**Q.** And the “Average Hyperemia Grade” value ([1]; Day 1 6 h post, 0-4 scale)?
**A.** 3

**Q.** What about the “Average Hyperemia Grade” value [1, 4] of the same compound?
**A.** 3

**Q.** And the “Average Hyperemia Grade” value [1, 5]?
**A.** 2.5

**Q.** What about the “Average Hyperemia Grade” value ([1]; Week 1 2 h post, 0-4 scale) of the same compound?
**A.** 2

**Q.** What about the “Average Hyperemia Grade” value ([1]; Week 1 before, 0-4 scale) of the same compound?
**A.** 2

**Q.** What about the “Average Hyperemia Grade” value ([1]; Week 2 2 h post, 0-4 scale) of the same compound?
**A.** 2

**Q.** What about the “Average Hyperemia Grade” value ([1]; Week 2 before, 0-4 scale) of the same compound?
**A.** 2

**Q.** And the “Average Hyperemia Grade” value [1, 6]?
**A.** 3

**Q.** What about the “time the grade reduction remained significant after the stop of dosing” value ([1]; after 2 weeks BID dosing) of the same compound?
**A.** 2 weeks

**Q.** And the “hyperemia grade, drug effect on day 1” value ([1]; day 1, comparing to the baseline)?
**A.** did not change significantly

**Q.** And the “hyperemia grade reduction from baseline” value ([1]; week 1 and 2)?
**A.** about 1 grade

**Q.** And the safety and tolerability (pterygium patients [3]; 0.2% eye drop, 28 days TID)?
**A.** excellent with no serious adverse events

**Q.** And the “Mean grade Difference, nintedanib vs vehicle (pterygium vascularity)” value (“Mean grade Difference, nintedanib” below) (pterygium patients [3]; Day 1 (baseline))?
**A.** −0.15

**Q.** What about the “Mean change from baseline Difference, nintedanib vs vehicle (pterygium vascularity)” value (shortened to “Mean change from baseline Difference”) (pterygium patients [3]; Week 2) of the same compound?
**A.** −0.72

**Q.** And the “Mean grade Difference, nintedanib” value (pterygium patients [3]; Week 2)?
**A.** −0.87

**Q.** And the “Mean change from baseline Difference” value (pterygium patients [3]; Week 4 (end of dosing))?
**A.** −0.76

**Q.** What about the “Mean grade Difference, nintedanib” value (pterygium patients [3]; Week 4 (end of dosing)) of the same compound?
**A.** −0.91

**Q.** What about the “Mean change from baseline Difference” value (pterygium patients [3]; Week 8) of the same compound?
**A.** −0.41

**Q.** And the “Mean grade Difference, nintedanib” value (pterygium patients [3]; Week 8)?
**A.** −0.53

**Q.** What about the “Mean change from baseline Difference” value (pterygium patients [3]; Week 16) of the same compound?
**A.** −0.59

**Q.** And the “Mean grade Difference, nintedanib” value (pterygium patients [3]; Week 16)?
**A.** −0.7

**Q.** What about the “Mean change from baseline Difference” value (pterygium patients [3]; Week 24 (end of study)) of the same compound?
**A.** −0.17

**Q.** What about the “Mean grade Difference, nintedanib” value (pterygium patients [3]; Week 24 (end of study)) of the same compound?
**A.** −0.31

**Q.** And the “persistence of effect on pterygium vascularity” value (pterygium patients [3]; after 28 days TID dosing)?
**A.** maintained through Week 16

**Q.** What about the “effect on pterygium vascularity” value (pterygium patients [3]; by Week 2) of the same compound?
**A.** highly significant
